Laboratory results taken from patent US9302999B2, “Substituted triazoles as herbicides” (E. I. DU PONT DE NEMOURS AND COMPANY, priority 2012, dated 2016).

Legend:
Type in all cases: in vivo
[1] = system: ducksalad (Heteranthera limosa); assay: Test C flooded paddy test: ducksalad; conditions: scale 0 to 100 (0 no effect, 100 complete control)
In short: (§1)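 Greenhouse plants treated at the 2-leaf stage by dosing the flood water (3 cm depth, maintained) were compared with controls after 13 to 15 days and rated 0 to 100, where 100 means complete control; a dash marks no test result.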

[2] = system: morningglory (Ipomoea spp.); assay: Test A pre-/postemergence: morningglory; conditions: for Morningglory plant response rating: Postemergence; for Plant response rating, Morningglory: Preemergence
In short: (§2)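 Whole-plant greenhouse assay in loam/sand. Preemergence directed soil spray plus simultaneous postemergence spray (one- to two-leaf stage, 2–10 cm). Rated visually ~10 days later, 0 = no effect, 100 = complete control.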

[3] = system: barnyardgrass (Echinochloa crus-galli); assay: Test A pre-/postemergence: barnyardgrass; conditions: for Barnyardgrass plant response rating: Postemergence; for Plant response rating, Barnyardgrass: Preemergence
In short: as §2

corn (Zea mays) = assay: Test A pre-/postemergence: corn; conditions: for Corn plant response rating: Postemergence; for Plant response rating, Corn: Preemergence
In short: as §2

rice (Oryza sativa) = assay: Test C flooded paddy test: rice; conditions: scale 0 to 100 (0 no effect, 100 complete control)
In short: as §1

[4] = system: foxtail, giant (giant foxtail, Setaria faberii); assay: Test A pre-/postemergence: foxtail, giant; conditions: for Foxtail, Giant plant response rating: Postemergence; for Plant response rating, Foxtail, Giant: Preemergence
In short: as §2

[5] = system: sedge, umbrella (small-flower umbrella sedge, Cyperus difformis); assay: Test C flooded paddy test: sedge, umbrella; conditions: scale 0 to 100 (0 no effect, 100 complete control)
In short: as §1

[6] = system: barnyardgrass (Echinochloa crus-galli); assay: Test C flooded paddy test: barnyardgrass; conditions: scale 0 to 100 (0 no effect, 100 complete control)
In short: as §1

[7] = system: wheat (Triticum aestivum); assay: Test A pre-/postemergence: wheat; conditions: for Wheat plant response rating: Postemergence; for Plant response rating, Wheat: Preemergence
In short: as §2

[8] = system: pigweed (Amaranthus retroflexus); assay: Test A pre-/postemergence: pigweed; conditions: for Pigweed plant response rating: Postemergence; for Plant response rating, Pigweed: Preemergence
In short: as §2

[9] = system: crabgrass, large (large crabgrass, Digitaria sanguinalis); assay: Test A pre-/postemergence: crabgrass, large; conditions: for Crabgrass, Large plant response rating: Postemergence; for Plant response rating, Crabgrass, Large: Preemergence
In short: as §2

[10] = system: velvetleaf (Abutilon theophrasti); assay: Test A pre-/postemergence: velvetleaf; conditions: for Velvetleaf plant response rating: Postemergence; for Plant response rating, Velvetleaf: Preemergence
In short: as §2

[11] = Flood (flooded paddy test), 62 g ai/ha, visual rating after 13 to 15 days
[12] = Flood (flooded paddy test), 125 g ai/ha, visual rating after 13 to 15 days
[13] = Flood (flooded paddy test), 250 g ai/ha, visual rating after 13 to 15 days
[14] = 125 g ai/ha, 0 to 100 scale, 0 is no effect, 100 is complete control
[15] = 500 g ai/ha, visual rating on 0 to 100 scale (0 no effect, 100 complete control), approximately ten days
[16] = 125 g ai/ha, 0 to 100 scale (0 no effect, 100 complete control)
[17] = 500 g ai/ha, 0 to 100 scale, 0 is no effect, 100 is complete control

COc1nn(-c2ccc(C(F)(F)F)cc2)nc1Cn1nc(C(F)(F)F)cc1C(F)(F)F [Compound 30]
Plant response rating, Ducksalad [1, 11]: 0 | Plant response rating, Ducksalad [1, 12]: 0 | Plant response rating, Ducksalad [1, 13]: 0 | Plant response rating, Ducksalad ([1]; Flood, 31 g ai/ha): 0 | Morningglory plant response rating [2, 14]: 0 | Morningglory plant response rating [2, 15]: 0 | Plant response rating, Morningglory [2, 16]: 0 | Plant response rating, Morningglory [2, 17]: 0 | Barnyardgrass plant response rating [3, 14]: 0 | Barnyardgrass plant response rating [3, 15]: 0 | Plant response rating, Barnyardgrass [3, 16]: 0 | Plant response rating, Barnyardgrass [3, 17]: 0 | Corn plant response rating (corn (Zea mays); [14]): 0 | Corn plant response rating (corn (Zea mays); [15]): 0 | Plant response rating, Corn (corn (Zea mays); [16]): 0 | Plant response rating, Corn (corn (Zea mays); [17]): 0 | Plant response rating, Rice (rice (Oryza sativa); [11]): 0 | Plant response rating, Rice (rice (Oryza sativa); [12]): 0 | Plant response rating, Rice (rice (Oryza sativa); [13]): 0 | Plant response rating, Rice (rice (Oryza sativa); Flood, 31 g ai/ha): 0 | Foxtail, Giant plant response rating [4, 14]: 0 | Foxtail, Giant plant response rating [4, 15]: 0 | Plant response rating, Foxtail, Giant [4, 16]: 0 | Plant response rating, Foxtail, Giant [4, 17]: 0 | Plant response rating, Sedge, Umbrella [5, 11]: 0 | Plant response rating, Sedge, Umbrella [5, 12]: 20 | Plant response rating, Sedge, Umbrella [5, 13]: 30 | Plant response rating, Sedge, Umbrella ([5]; Flood, 31 g ai/ha): 0 | Plant response rating, Barnyardgrass [6, 11]: 0 | Plant response rating, Barnyardgrass [6, 12]: 0 | Plant response rating, Barnyardgrass [6, 13]: 0 | Plant response rating, Barnyardgrass ([6]; Flood, 31 g ai/ha): 0 | Wheat plant response rating [7, 14]: 0 | Wheat plant response rating [7, 15]: 0 | Plant response rating, Wheat [7, 16]: 0 | Plant response rating, Wheat [7, 17]: 0 | Pigweed plant response rating [8, 14]: 0 | Pigweed plant response rating [8, 15]: 0 | Plant response rating, Pigweed [8, 16]: 0 | Plant response rating, Pigweed [8, 17]: 0 | Crabgrass, Large plant response rating [9, 14]: 0 | Crabgrass, Large plant response rating [9, 15]: 0 | Plant response rating, Crabgrass, Large [9, 16]: 0 | Plant response rating, Crabgrass, Large [9, 17]: 0 | Velvetleaf plant response rating [10, 14]: 0 | Velvetleaf plant response rating [10, 15]: 0 | Plant response rating, Velvetleaf [10, 16]: 0 | Plant response rating, Velvetleaf [10, 17]: 0

COc1cc(Cc2nn(-c3ccc(C(F)(F)F)cc3)nc2C)ccn1 [Compound 31]
Plant response rating, Ducksalad [1, 11]: 0 | Plant response rating, Ducksalad [1, 12]: 0 | Plant response rating, Ducksalad [1, 13]: 0 | Plant response rating, Ducksalad ([1]; Flood, 31 g ai/ha): 0 | Morningglory plant response rating [2, 14]: 20 | Morningglory plant response rating [2, 15]: 100 | Plant response rating, Morningglory [2, 16]: 0 | Plant response rating, Morningglory [2, 17]: 0 | Barnyardgrass plant response rating [3, 14]: 10 | Barnyardgrass plant response rating [3, 15]: 10 | Plant response rating, Barnyardgrass [3, 16]: 0 | Plant response rating, Barnyardgrass [3, 17]: 0 | Corn plant response rating (corn (Zea mays); [14]): 10 | Corn plant response rating (corn (Zea mays); [15]): 20 | Plant response rating, Corn (corn (Zea mays); [16]): 0 | Plant response rating, Corn (corn (Zea mays); [17]): 0 | Plant response rating, Rice (rice (Oryza sativa); [11]): 0 | Plant response rating, Rice (rice (Oryza sativa); [12]): 0 | Plant response rating, Rice (rice (Oryza sativa); [13]): 0 | Plant response rating, Rice (rice (Oryza sativa); Flood, 31 g ai/ha): 0 | Foxtail, Giant plant response rating [4, 14]: 10 | Foxtail, Giant plant response rating [4, 15]: 50 | Plant response rating, Foxtail, Giant [4, 16]: 30 | Plant response rating, Foxtail, Giant [4, 17]: 90 | Plant response rating, Sedge, Umbrella [5, 11]: 0 | Plant response rating, Sedge, Umbrella [5, 12]: 0 | Plant response rating, Sedge, Umbrella [5, 13]: 0 | Plant response rating, Sedge, Umbrella ([5]; Flood, 31 g ai/ha): 0 | Plant response rating, Barnyardgrass [6, 11]: 0 | Plant response rating, Barnyardgrass [6, 12]: 0 | Plant response rating, Barnyardgrass [6, 13]: 0 | Plant response rating, Barnyardgrass ([6]; Flood, 31 g ai/ha): 0 | Wheat plant response rating [7, 14]: 0 | Wheat plant response rating [7, 15]: 10 | Plant response rating, Wheat [7, 16]: 0 | Plant response rating, Wheat [7, 17]: 0 | Pigweed plant response rating [8, 14]: 60 | Pigweed plant response rating [8, 15]: 90 | Plant response rating, Pigweed [8, 16]: 0 | Plant response rating, Pigweed [8, 17]: 50 | Crabgrass, Large plant response rating [9, 14]: 10 | Crabgrass, Large plant response rating [9, 15]: 50 | Plant response rating, Crabgrass, Large [9, 16]: 0 | Plant response rating, Crabgrass, Large [9, 17]: 60 | Velvetleaf plant response rating [10, 14]: 10 | Velvetleaf plant response rating [10, 15]: 20 | Plant response rating, Velvetleaf [10, 16]: 0 | Plant response rating, Velvetleaf [10, 17]: 0

Cc1nn(-c2ccc(C(F)(F)F)cc2)nc1Cn1cc(C(F)(F)F)cn1 [Compound 32]
Plant response rating, Ducksalad [1, 11]: 0 | Plant response rating, Ducksalad [1, 12]: 0 | Plant response rating, Ducksalad [1, 13]: 0 | Plant response rating, Ducksalad ([1]; Flood, 31 g ai/ha): 0 | Morningglory plant response rating [2, 14]: 10 | Morningglory plant response rating [2, 15]: 50 | Plant response rating, Morningglory [2, 16]: 0 | Plant response rating, Morningglory [2, 17]: 0 | Barnyardgrass plant response rating [3, 14]: 10 | Barnyardgrass plant response rating [3, 15]: 10 | Plant response rating, Barnyardgrass [3, 16]: 0 | Plant response rating, Barnyardgrass [3, 17]: 0 | Corn plant response rating (corn (Zea mays); [14]): 0 | Corn plant response rating (corn (Zea mays); [15]): 10 | Plant response rating, Corn (corn (Zea mays); [16]): 0 | Plant response rating, Corn (corn (Zea mays); [17]): 0 | Plant response rating, Rice (rice (Oryza sativa); [11]): 0 | Plant response rating, Rice (rice (Oryza sativa); [12]): 0 | Plant response rating, Rice (rice (Oryza sativa); [13]): 0 | Plant response rating, Rice (rice (Oryza sativa); Flood, 31 g ai/ha): 0 | Foxtail, Giant plant response rating [4, 14]: 10 | Foxtail, Giant plant response rating [4, 15]: 20 | Plant response rating, Foxtail, Giant [4, 16]: 10 | Plant response rating, Foxtail, Giant [4, 17]: 80 | Plant response rating, Sedge, Umbrella [5, 11]: 0 | Plant response rating, Sedge, Umbrella [5, 12]: 0 | Plant response rating, Sedge, Umbrella [5, 13]: 0 | Plant response rating, Sedge, Umbrella ([5]; Flood, 31 g ai/ha): 0 | Plant response rating, Barnyardgrass [6, 11]: 0 | Plant response rating, Barnyardgrass [6, 12]: 0 | Plant response rating, Barnyardgrass [6, 13]: 0 | Plant response rating, Barnyardgrass ([6]; Flood, 31 g ai/ha): 0 | Wheat plant response rating [7, 14]: 0 | Wheat plant response rating [7, 15]: 0 | Plant response rating, Wheat [7, 16]: 0 | Plant response rating, Wheat [7, 17]: 0 | Pigweed plant response rating [8, 14]: 60 | Pigweed plant response rating [8, 15]: 100 | Plant response rating, Pigweed [8, 16]: 0 | Plant response rating, Pigweed [8, 17]: 70 | Crabgrass, Large plant response rating [9, 14]: 20 | Crabgrass, Large plant response rating [9, 15]: 30 | Plant response rating, Crabgrass, Large [9, 16]: 10 | Plant response rating, Crabgrass, Large [9, 17]: 30 | Velvetleaf plant response rating [10, 14]: 20 | Velvetleaf plant response rating [10, 15]: 20 | Plant response rating, Velvetleaf [10, 16]: 0 | Plant response rating, Velvetleaf [10, 17]: 0

Cc1nn(-c2ccc(F)cc2)nc1Cn1cc(C(F)(F)F)nc1Cl [Compound 35]
Plant response rating, Ducksalad [1, 11]: 65 | Plant response rating, Ducksalad [1, 12]: 70 | Plant response rating, Ducksalad [1, 13]: 75 | Plant response rating, Ducksalad ([1]; Flood, 31 g ai/ha): 40 | Morningglory plant response rating [2, 14]: 90 | Morningglory plant response rating [2, 15]: 100 | Plant response rating, Morningglory [2, 16]: 20 | Plant response rating, Morningglory [2, 17]: 50 | Barnyardgrass plant response rating [3, 14]: 40 | Barnyardgrass plant response rating [3, 15]: 90 | Plant response rating, Barnyardgrass [3, 16]: 60 | Plant response rating, Barnyardgrass [3, 17]: 90 | Corn plant response rating (corn (Zea mays); [14]): 20 | Corn plant response rating (corn (Zea mays); [15]): 50 | Plant response rating, Corn (corn (Zea mays); [16]): 10 | Plant response rating, Corn (corn (Zea mays); [17]): 30 | Plant response rating, Rice (rice (Oryza sativa); [11]): 0 | Plant response rating, Rice (rice (Oryza sativa); [12]): 0 | Plant response rating, Rice (rice (Oryza sativa); [13]): 0 | Plant response rating, Rice (rice (Oryza sativa); Flood, 31 g ai/ha): 0 | Foxtail, Giant plant response rating [4, 14]: 60 | Foxtail, Giant plant response rating [4, 15]: 90 | Plant response rating, Foxtail, Giant [4, 16]: 80 | Plant response rating, Foxtail, Giant [4, 17]: 100 | Plant response rating, Sedge, Umbrella [5, 11]: 75 | Plant response rating, Sedge, Umbrella [5, 12]: 80 | Plant response rating, Sedge, Umbrella [5, 13]: 80 | Plant response rating, Sedge, Umbrella ([5]; Flood, 31 g ai/ha): 75 | Plant response rating, Barnyardgrass [6, 11]: 0 | Plant response rating, Barnyardgrass [6, 12]: 0 | Plant response rating, Barnyardgrass [6, 13]: 30 | Plant response rating, Barnyardgrass ([6]; Flood, 31 g ai/ha): 0 | Wheat plant response rating [7, 14]: 10 | Wheat plant response rating [7, 15]: 60 | Plant response rating, Wheat [7, 16]: 0 | Plant response rating, Wheat [7, 17]: 0 | Pigweed plant response rating [8, 14]: 100 | Pigweed plant response rating [8, 15]: 100 | Plant response rating, Pigweed [8, 16]: 90 | Plant response rating, Pigweed [8, 17]: 100 | Crabgrass, Large plant response rating [9, 14]: 80 | Crabgrass, Large plant response rating [9, 15]: 90 | Plant response rating, Crabgrass, Large [9, 16]: 90 | Plant response rating, Crabgrass, Large [9, 17]: 100 | Velvetleaf plant response rating [10, 14]: 70 | Velvetleaf plant response rating [10, 15]: 100 | Plant response rating, Velvetleaf [10, 16]: 30 | Plant response rating, Velvetleaf [10, 17]: 50
